{"source": "ChEMBL document CHEMBL5465560", "about": "“Selectivity Literature for EUbOPEN Chemogenomic Library” (2024)", "key": {"[1]": {"system": "Hepatocyte growth factor receptor (Homo sapiens), P08581 [M1250T]", "sequence (P08581 whole entry M1250T)": "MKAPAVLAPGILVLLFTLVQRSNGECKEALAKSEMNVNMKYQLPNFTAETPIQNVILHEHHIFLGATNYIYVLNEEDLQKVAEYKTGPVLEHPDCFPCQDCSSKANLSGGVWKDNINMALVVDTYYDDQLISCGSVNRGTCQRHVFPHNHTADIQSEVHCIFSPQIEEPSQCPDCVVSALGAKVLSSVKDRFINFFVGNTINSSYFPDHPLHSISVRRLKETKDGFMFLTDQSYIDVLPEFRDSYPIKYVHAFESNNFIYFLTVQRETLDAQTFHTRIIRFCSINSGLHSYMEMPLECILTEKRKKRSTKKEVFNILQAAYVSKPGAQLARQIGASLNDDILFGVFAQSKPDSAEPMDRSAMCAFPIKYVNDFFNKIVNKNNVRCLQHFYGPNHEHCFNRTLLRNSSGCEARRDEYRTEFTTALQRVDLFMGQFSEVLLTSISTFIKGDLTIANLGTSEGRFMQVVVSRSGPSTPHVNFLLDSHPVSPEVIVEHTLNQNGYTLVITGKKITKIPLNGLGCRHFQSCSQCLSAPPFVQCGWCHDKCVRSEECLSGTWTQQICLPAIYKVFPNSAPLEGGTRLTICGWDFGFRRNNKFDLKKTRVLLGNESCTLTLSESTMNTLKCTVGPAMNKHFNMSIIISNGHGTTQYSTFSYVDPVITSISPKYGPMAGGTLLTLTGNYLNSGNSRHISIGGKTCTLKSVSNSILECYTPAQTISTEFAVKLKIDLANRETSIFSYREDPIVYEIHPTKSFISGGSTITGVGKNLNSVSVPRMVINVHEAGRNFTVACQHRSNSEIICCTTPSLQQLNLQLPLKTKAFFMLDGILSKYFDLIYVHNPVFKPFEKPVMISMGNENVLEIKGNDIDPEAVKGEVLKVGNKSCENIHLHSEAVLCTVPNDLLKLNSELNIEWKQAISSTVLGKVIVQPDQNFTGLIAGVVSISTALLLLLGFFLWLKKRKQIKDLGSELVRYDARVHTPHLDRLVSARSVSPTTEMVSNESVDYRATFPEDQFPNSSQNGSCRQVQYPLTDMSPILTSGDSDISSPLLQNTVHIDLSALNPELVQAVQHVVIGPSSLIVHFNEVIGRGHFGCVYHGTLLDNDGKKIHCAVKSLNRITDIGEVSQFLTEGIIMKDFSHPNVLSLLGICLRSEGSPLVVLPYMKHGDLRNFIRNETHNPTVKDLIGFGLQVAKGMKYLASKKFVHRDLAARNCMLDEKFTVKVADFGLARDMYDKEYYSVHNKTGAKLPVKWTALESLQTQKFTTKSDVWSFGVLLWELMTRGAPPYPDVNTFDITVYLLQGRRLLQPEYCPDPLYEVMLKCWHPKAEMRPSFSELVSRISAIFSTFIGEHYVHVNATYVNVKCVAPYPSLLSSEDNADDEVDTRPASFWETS", "assay": "(§1) Selectivity interaction (KinomeScan (DiscoverX)) EUB0000311b MET", "details": "at 1 µM"}, "[2]": {"target": "Hepatocyte growth factor receptor (Homo sapiens, UniProt P08581)", "sequence (P08581 whole entry)": "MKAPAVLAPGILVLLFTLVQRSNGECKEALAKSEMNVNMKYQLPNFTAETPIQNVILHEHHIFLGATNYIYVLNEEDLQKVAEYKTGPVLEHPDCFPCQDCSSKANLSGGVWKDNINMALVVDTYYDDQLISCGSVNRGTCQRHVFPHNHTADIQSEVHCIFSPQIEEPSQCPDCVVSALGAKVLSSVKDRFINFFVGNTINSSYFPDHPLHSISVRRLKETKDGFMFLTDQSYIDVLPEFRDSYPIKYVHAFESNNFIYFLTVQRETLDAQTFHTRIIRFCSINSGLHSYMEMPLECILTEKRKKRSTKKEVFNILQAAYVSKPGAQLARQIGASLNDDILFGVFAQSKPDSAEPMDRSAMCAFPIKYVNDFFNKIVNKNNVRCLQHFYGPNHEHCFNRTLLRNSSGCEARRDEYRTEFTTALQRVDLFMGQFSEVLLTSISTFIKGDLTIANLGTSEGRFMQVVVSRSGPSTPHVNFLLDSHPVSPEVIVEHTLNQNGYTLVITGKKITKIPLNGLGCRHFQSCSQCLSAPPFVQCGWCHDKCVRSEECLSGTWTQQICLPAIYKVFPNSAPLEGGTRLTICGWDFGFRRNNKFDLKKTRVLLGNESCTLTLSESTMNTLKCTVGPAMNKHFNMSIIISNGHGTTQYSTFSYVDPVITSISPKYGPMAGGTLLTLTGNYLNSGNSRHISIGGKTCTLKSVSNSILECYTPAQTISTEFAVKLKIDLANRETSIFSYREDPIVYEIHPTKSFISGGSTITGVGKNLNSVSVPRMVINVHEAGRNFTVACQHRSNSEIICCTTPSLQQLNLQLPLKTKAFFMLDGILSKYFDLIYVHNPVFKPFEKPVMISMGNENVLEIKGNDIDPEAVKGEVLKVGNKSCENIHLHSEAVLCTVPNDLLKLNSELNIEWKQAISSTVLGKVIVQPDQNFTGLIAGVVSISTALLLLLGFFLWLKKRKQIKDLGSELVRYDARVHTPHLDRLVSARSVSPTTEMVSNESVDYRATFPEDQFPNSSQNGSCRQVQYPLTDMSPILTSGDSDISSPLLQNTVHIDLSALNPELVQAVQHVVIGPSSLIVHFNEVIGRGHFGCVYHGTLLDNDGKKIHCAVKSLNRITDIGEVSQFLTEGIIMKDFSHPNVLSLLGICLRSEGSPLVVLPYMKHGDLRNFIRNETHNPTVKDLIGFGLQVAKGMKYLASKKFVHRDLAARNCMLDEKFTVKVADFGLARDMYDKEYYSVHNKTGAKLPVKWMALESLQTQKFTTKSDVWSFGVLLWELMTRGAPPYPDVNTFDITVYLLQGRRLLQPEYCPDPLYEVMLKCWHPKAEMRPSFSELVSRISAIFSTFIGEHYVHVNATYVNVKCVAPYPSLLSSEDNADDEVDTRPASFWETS", "assay": "as §1", "details": "at 1 µM"}, "[3]": {"system": "Hepatocyte growth factor receptor (Homo sapiens), P08581 [Y1235D]", "assay": "as §1", "details": "at 1 µM"}, "[4]": {"target": "Histone-lysine N-methyltransferase ASH1L (Homo sapiens) (UniProt Q9NR48)", "details": "at 1 µM"}, "[5]": {"target": "Phosphatidylinositol 4-kinase alpha (Homo sapiens, UniProt P42356)", "sequence (P42356 whole entry)": "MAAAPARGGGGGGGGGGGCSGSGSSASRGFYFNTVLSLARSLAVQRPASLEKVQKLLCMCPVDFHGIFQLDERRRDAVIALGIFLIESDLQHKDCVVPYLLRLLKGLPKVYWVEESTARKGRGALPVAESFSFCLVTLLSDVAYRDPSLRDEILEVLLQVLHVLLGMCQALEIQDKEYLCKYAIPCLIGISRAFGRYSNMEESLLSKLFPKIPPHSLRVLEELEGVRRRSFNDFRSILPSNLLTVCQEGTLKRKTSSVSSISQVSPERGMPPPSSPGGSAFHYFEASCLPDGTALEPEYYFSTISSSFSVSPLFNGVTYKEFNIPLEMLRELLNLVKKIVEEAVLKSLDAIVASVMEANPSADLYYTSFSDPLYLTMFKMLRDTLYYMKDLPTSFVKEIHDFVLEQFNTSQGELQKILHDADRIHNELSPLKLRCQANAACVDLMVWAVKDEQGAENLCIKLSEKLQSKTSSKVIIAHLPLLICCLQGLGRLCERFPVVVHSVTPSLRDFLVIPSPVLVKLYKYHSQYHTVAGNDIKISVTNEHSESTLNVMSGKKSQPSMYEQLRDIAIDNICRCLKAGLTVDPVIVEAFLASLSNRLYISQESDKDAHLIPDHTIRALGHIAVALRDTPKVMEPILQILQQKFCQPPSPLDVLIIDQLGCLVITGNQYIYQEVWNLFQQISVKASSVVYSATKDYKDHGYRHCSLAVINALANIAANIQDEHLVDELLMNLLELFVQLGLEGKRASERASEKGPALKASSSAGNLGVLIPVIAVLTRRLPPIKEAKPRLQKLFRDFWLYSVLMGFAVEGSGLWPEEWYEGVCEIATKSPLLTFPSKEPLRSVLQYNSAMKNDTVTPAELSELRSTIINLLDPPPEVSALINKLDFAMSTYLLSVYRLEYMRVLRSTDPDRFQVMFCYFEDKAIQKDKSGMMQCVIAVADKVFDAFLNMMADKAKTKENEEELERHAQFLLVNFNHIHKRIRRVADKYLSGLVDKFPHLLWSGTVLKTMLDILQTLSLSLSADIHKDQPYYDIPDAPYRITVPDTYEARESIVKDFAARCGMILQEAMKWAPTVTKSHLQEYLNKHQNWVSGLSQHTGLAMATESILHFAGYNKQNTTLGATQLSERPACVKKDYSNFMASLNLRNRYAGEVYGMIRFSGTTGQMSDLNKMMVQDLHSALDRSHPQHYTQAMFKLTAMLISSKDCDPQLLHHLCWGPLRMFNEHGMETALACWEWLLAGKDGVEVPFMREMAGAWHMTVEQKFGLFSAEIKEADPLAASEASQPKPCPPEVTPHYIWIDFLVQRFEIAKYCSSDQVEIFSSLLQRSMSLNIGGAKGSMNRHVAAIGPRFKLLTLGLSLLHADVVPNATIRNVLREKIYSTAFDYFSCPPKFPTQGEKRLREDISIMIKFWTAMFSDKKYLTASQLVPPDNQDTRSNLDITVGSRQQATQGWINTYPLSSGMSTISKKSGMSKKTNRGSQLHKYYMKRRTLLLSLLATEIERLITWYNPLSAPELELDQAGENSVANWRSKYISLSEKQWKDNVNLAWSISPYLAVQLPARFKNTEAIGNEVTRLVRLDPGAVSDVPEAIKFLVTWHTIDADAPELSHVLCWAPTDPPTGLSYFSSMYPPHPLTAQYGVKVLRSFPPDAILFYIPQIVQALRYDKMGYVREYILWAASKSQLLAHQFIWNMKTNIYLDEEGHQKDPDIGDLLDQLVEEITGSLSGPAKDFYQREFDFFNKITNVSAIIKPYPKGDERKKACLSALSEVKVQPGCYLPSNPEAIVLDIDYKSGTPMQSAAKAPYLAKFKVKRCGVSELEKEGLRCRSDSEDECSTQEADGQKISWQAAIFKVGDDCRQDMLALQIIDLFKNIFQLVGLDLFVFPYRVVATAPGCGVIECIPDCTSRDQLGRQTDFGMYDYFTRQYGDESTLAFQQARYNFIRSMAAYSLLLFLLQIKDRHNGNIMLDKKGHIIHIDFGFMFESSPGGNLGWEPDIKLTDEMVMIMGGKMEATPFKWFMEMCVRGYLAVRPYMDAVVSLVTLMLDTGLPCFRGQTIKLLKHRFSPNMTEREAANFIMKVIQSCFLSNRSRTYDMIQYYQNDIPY", "assay": "Selectivity interaction (Kinase panel (radiometric assay)) EUB0000877a PI4KA"}, "[6]": {"target": "T1, Tyrosine-protein kinase Mer (Homo sapiens) (UniProt Q12866)", "T1 sequence (whole entry)": "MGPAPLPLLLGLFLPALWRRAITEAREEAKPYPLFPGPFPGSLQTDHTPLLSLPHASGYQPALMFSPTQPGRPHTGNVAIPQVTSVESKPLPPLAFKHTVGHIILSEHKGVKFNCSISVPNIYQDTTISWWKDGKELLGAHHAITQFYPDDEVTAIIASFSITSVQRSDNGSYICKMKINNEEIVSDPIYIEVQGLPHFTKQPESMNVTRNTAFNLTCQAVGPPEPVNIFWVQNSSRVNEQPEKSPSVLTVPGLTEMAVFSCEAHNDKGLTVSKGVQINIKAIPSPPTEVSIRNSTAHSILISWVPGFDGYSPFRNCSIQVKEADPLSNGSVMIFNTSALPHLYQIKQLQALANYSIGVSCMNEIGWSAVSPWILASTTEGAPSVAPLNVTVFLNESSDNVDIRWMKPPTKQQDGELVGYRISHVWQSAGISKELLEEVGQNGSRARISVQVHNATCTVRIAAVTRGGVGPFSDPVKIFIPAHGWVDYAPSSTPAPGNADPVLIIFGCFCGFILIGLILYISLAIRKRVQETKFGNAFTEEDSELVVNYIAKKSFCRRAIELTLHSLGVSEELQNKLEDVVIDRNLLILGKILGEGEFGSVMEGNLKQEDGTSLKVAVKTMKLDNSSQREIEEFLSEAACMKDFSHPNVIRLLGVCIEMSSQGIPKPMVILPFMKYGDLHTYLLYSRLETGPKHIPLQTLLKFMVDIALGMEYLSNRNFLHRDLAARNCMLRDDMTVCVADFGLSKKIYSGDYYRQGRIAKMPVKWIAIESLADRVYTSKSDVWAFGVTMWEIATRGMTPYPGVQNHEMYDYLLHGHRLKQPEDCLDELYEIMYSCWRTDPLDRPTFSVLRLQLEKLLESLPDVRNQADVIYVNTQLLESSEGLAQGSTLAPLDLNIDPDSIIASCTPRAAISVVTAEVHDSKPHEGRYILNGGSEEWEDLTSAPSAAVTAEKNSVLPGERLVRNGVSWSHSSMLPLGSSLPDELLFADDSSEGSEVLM", "assay": "Selectivity interaction (Kinase panel (Invitrogen)) EUB0000639a MERTK", "details": "at 200 nM"}, "[7]": {"target": "Phosphatidylinositol 4-phosphate 3-kinase C2 domain-containing subunit beta (Homo sapiens) (UniProt O00750)", "assay": "Selectivity interaction (Ambit KINOMEscan and KiNATiv profiling in Jurkat cells) EUB0000090b PIK3C2B", "assay_type": "cell-based", "details": "at 1 µM"}, "[8]": {"target": "T2, Phosphatidylinositol 5-phosphate 4-kinase type-2 gamma (Homo sapiens) (UniProt Q8TBX8)", "T2 sequence (whole entry)": "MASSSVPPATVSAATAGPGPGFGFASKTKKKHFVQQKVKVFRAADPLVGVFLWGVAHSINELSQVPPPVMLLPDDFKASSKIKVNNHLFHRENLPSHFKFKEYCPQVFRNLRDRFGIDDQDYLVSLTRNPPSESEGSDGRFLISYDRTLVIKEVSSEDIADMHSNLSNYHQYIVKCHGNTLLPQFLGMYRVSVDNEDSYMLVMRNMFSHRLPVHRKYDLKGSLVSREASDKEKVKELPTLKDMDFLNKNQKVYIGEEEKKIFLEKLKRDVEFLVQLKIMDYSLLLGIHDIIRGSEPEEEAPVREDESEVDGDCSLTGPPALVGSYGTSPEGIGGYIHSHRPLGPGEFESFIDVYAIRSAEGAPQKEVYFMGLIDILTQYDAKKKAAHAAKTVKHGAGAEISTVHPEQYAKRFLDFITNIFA", "assay": "Selectivity interaction (KinomeScan (DiscoverX)) EUB0000655a PIP4K2C", "details": "at 10 µM"}, "[9]": {"target": "Sphingosine kinase 1 (Homo sapiens) (UniProt Q9NYA1)", "assay": "Selectivity interaction (Adapta Assay) EUB0001632a SPHK1", "details": "at 10 µM"}, "[10]": {"target": "T3, Serine/threonine-protein kinase TAO3 (Homo sapiens) (UniProt Q9H2K8)", "T3 sequence (whole entry)": "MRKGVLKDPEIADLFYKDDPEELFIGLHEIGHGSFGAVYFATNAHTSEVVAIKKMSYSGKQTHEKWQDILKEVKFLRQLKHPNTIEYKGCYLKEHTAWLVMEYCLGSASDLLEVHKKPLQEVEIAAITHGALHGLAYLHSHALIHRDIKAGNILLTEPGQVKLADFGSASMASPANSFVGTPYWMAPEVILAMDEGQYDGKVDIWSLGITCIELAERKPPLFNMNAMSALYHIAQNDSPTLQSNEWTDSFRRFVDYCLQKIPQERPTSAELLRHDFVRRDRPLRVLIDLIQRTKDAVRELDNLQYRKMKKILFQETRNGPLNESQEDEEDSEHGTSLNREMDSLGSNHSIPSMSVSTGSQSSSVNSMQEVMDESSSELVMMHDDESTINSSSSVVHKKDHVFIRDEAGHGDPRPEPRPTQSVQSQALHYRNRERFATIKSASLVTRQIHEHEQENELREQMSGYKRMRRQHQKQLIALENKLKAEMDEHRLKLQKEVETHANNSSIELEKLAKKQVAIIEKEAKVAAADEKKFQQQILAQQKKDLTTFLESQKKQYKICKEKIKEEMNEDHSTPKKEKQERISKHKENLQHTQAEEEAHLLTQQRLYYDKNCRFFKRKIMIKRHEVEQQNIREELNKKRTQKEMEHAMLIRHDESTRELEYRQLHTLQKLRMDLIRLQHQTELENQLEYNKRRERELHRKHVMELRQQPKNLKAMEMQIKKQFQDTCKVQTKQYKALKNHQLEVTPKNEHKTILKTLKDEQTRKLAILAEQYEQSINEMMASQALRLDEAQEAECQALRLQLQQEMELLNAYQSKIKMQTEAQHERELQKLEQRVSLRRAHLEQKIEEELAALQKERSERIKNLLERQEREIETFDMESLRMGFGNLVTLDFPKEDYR", "assay": "Selectivity interaction (ProQinase) EUB0000171b TAOK3"}}, "note": "pIC50: −log10 of the molar value."}
{"compound": "CCc1ccccc1C(=O)Nc1n[nH]c2c(C)c(F)c(C3C(C#N)=C(C)N(C)C(C)=C3C#N)cc12", "note": "[BAY-3827]", "values": [{"measurement": "% of control", "setting": "[1]", "result": 25, "unit": "%"}, {"measurement": "% of control", "setting": "[2]", "result": 7.3, "unit": "%"}, {"measurement": "% of control", "setting": "[3]", "result": 16, "unit": "%"}]}
{"compound": "CNCCN1CCC(c2cc(CN(C)C(=O)c3cccc(Oc4ccccc4)c3)ccn2)CC1", "values": [{"measurement": "% activity", "setting": "[4]", "result": "> 90", "unit": "%"}]}
{"compound": "CCC(=O)N1CC[C@H](Nc2ncnc3c2CN(c2cnc(OC)c(C(F)(F)F)c2)CC3)C1", "note": "[LENIOLISIB]", "values": [{"measurement": "pIC50", "setting": "[5]", "result": "< 5.04"}]}
{"compound": "CC[C@@H]1[C@H](F)C(=O)N[C@@H]1COc1nccc2cc(C(N)=O)c(OC)cc12", "note": "[ZIMLOVISERTIB]", "values": [{"measurement": "% of inhibition", "setting": "[6]", "result": 3.13, "unit": "%"}]}
{"compound": "CN(C)C/C=C/C(=O)Nc1ccc(C(=O)N2CCCC(Nc3ncc(Cl)c(-c4c[nH]c5ccccc45)n3)C2)cc1", "note": "(stereo unspecified)", "values": [{"measurement": "% of control", "setting": "[7]", "result": 94, "unit": "%"}]}
{"compound": "CN(C)CCOc1ccc(-c2nc(-c3ccncc3)c(-c3ccc4c(c3)CC/C4=N\\O)[nH]2)cc1", "values": [{"measurement": "% of control", "setting": "[8]", "result": 100, "unit": "%"}]}
{"compound": "Cn1cc(-n2cnc3c(NCc4nc5cc(Cl)c(Cl)cc5[nH]4)nc(N4CCOCC4)nc32)cn1", "values": [{"measurement": "% of inhibition", "setting": "[9]", "result": 53.7, "unit": "%"}]}
{"compound": "C=CC(=O)Nc1cccc(C(=O)Nc2ccc(Nc3cc(-c4[nH]c(SC)nc4C)ccn3)cc2)c1", "values": [{"measurement": "% of control", "setting": "[10]; at 1 µM", "result": 95, "unit": "%"}, {"measurement": "% of control", "setting": "[10]; at 5 µM", "result": 72, "unit": "%"}]}
